In this assay the target is glucose-6-phosphate dehydrogenase-6-phosphogluconolactonase (Plasmodium falciparum 3D7). The assay is described as follows: PfG6PD enzyme inhibitors, kinetic orthogonal readout, SAR follow-up, orthogonal assay for PfG6PD antimalarial inhibitor project, biochemical, kinetic direct NADPH detection, set 2 (AID 602133). Conditions: recombinant PfG6PD.

pIC50: −log10 of the molar value. The source made the active and inactive calls. How the calls were made is not given here.

The pIC50 is the negative decadic logarithm of the IC50, by convention in mol/L. For orientation: IC50 means the concentration that gives 50% inhibition.

As to `CCN1CCC[C@@H]1CNC(=O)c1ccc2c(c1)NC(=O)/C(=C/c1ccccc1F)S2`, the pIC50 was 5.71. Still for that read-out and setting: then `CCC(C)N(CCNC(=O)c1ccc2c(c1)NC(=O)c1ccccc1S2)C1CCCCC1` (stereo not drawn), with 4.88; and `CCN(CC)CCCC(C)Nc1ccnc2cc(Cl)ccc12` (stereo not drawn), with 4.37; and `CC(C)(C)OC(=O)N1CCCC1CNC(=O)c1ccc2c(c1)NC(=O)/C(=C/c1ccccc1F)S2` (stereo not drawn), with 4.61. With `NC1CCN(C(=O)c2ccc3c(c2)NC(=O)c2ccccc2S3)C1` (stereo not drawn), the IC50 was > 80 µM (inactive). As to `O=C(NCCN1CCCCC1)c1ccc2c(c1)NC(=O)c1ccccc1S2`, the pIC50 is 4.74.

For the compound `O=C(NCCN1CCOCC1)c1ccc2c(c1)NC(=O)c1ccccc1S2`, the IC50 was > 80 µM (inactive). For `CCN1CCCC1CNC(=O)c1ccc2c(c1)NC(=O)/C(=C/c1ccc3ccccc3c1)S2` (stereo not drawn), the pIC50 is 5.54. Same read-out and setting: the figure for `CCN1CCC[C@@H]1CNC(=O)c1ccc2c(c1)NC(=O)c1ccccc1S2` is 5.32; for `CCN(CC)CCNC(=O)c1ccc2c(c1)NC(=O)/C(=C/c1ccccc1F)S2` it is 5.32. For `NCCNC(=O)c1ccc2c(c1)NC(=O)c1ccccc1S2`, the IC50 is > 80 µM (inactive). Take `NC1CCN(C(=O)c2ccc3c(c2)NC(=O)/C(=C/c2ccccc2F)S3)C1` (stereo not drawn): the pIC50 is 4.46. Still for that read-out and setting: the figure for `CCN1CCC[C@H]1CNC(=O)c1ccc2c(c1)NC(=O)c1ccccc1S2` is 4.33; for `CCN1CCC[C@H]1CNC(=O)c1ccc2c(c1)NC(=O)/C(=C/c1ccccc1F)S2` it is 5.33. On the same count and under the same terms, the figure for `CN(C)c1ccccc1CNC(=O)c1ccc2c(c1)NC(=O)/C(=C/c1ccccc1F)S2` is 4.17; for `CCN1CCCC1CNC(=O)c1ccc2c(c1)NC(=O)/C(=C/c1ccc(F)cc1)S2` (stereo not drawn) it is 5.69.

With `CCN1CCCC1CNC(=O)c1ccc2c(c1)NC(=O)C(Cc1ccccc1F)S2` (stereo not drawn), the IC50 was > 80 µM (inactive). Consider `CCC(C)N1CCCC1CNC(=O)c1ccc2c(c1)NC(=O)c1ccccc1S2` (stereo not drawn), for which the pIC50 is 5.00.
